According to ChEMBL document CHEMBL3991601, “The target landscape of clinical kinase drugs” (Science, 2017):
The source made the active and inactive calls. On the calls: in the data inactive means no Kd found up to 30 µM.

Legend:
[1] = target: Cell division cycle 7-related protein kinase (Homo sapiens, UniProt O00311)
[2] = target: Serine/threonine-protein kinase PAK 6 (Homo sapiens, UniProt Q9NQU5)
[3] = target: Serine/threonine-protein kinase pim-2 (Homo sapiens, UniProt Q9P1W9)
[4] = target: Serine/threonine-protein kinase 24 (Homo sapiens, UniProt Q9Y6E0)
[5] = target: T1, UMP-CMP kinase (Homo sapiens, UniProt P30085)
T1 sequence (P30085 whole entry): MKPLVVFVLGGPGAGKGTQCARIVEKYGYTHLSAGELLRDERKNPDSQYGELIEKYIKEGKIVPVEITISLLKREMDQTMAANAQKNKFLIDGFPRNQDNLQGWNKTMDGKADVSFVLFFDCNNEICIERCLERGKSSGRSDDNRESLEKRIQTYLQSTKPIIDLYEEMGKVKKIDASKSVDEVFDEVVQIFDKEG

[6] = target: T2, Electron transfer flavoprotein subunit beta (Homo sapiens, UniProt P38117)
T2 sequence (P38117 whole entry): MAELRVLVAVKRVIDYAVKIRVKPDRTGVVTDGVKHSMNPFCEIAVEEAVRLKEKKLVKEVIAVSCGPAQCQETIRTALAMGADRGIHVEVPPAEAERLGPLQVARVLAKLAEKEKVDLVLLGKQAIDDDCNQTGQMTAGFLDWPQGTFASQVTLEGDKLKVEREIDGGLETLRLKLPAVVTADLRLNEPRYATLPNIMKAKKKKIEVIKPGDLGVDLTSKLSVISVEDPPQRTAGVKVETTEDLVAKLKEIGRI

[7] = target: T3, Dual specificity protein kinase TTK (Homo sapiens, UniProt P33981)
T3 sequence (P33981 whole entry): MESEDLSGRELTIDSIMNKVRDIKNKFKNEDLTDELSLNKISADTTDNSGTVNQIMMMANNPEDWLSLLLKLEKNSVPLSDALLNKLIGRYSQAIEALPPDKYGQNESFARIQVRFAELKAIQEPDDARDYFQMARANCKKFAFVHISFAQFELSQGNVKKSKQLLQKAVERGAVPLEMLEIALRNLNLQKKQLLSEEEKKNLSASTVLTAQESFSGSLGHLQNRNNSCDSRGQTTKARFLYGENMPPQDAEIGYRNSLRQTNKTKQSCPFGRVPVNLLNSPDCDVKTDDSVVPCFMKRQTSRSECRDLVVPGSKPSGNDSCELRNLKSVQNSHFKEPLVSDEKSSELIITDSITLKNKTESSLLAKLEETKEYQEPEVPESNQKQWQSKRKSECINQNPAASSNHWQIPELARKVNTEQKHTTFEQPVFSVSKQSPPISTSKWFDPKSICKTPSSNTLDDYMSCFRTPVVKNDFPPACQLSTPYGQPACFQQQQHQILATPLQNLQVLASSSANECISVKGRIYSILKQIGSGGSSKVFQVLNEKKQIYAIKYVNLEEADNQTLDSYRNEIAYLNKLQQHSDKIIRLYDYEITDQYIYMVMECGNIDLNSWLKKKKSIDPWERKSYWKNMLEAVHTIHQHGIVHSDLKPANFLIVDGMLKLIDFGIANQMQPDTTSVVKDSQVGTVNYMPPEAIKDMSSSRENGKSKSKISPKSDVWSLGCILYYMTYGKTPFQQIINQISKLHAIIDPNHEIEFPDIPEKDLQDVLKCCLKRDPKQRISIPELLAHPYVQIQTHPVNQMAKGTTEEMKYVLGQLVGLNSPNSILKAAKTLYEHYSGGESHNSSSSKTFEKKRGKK

Sequence of Serine/threonine-protein kinase PAK 6 (Q9NQU5 whole entry): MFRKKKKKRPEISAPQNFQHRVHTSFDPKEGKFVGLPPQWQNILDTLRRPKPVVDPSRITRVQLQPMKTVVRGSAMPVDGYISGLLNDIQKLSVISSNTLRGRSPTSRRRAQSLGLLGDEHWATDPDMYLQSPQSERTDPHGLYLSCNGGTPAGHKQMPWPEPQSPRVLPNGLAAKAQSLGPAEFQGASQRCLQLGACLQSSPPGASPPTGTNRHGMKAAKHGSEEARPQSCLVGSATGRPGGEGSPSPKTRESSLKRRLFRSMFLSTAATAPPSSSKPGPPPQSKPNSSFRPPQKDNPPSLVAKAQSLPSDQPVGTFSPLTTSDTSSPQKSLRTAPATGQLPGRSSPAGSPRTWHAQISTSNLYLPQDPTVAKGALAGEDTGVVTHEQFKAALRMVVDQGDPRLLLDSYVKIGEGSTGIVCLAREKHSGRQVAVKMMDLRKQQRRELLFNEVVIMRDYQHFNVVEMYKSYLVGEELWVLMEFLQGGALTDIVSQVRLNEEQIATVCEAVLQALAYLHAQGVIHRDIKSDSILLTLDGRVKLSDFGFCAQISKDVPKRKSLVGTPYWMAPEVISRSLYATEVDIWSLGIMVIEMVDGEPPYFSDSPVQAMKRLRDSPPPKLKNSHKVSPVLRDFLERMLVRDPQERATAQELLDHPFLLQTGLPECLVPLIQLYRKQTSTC
Sequence of Serine/threonine-protein kinase pim-2 (Q9P1W9 whole entry): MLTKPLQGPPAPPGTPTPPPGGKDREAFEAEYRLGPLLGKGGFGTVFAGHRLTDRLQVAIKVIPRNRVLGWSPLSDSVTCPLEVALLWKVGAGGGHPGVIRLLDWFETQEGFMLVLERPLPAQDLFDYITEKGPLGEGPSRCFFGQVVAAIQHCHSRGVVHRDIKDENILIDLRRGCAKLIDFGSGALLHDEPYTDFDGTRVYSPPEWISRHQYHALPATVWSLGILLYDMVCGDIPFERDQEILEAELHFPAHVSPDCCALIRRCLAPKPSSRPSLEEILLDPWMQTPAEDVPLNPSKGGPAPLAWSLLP
Sequence of Cell division cycle 7-related protein kinase (O00311 whole entry): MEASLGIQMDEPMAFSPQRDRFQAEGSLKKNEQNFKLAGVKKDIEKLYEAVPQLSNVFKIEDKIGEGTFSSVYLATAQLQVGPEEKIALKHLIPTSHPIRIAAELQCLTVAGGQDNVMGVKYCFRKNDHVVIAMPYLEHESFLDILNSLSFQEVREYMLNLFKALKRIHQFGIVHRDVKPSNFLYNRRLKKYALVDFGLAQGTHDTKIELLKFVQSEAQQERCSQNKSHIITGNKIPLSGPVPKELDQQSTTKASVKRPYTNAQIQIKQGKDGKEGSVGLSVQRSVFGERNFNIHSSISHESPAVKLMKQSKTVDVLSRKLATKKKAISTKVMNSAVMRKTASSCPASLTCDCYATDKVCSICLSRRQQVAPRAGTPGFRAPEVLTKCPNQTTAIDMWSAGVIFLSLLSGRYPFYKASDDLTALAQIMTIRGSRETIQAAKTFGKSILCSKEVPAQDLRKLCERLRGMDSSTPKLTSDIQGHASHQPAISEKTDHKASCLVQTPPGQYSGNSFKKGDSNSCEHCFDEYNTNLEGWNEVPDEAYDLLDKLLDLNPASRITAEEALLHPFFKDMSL
Sequence of Serine/threonine-protein kinase 24 (Q9Y6E0 whole entry): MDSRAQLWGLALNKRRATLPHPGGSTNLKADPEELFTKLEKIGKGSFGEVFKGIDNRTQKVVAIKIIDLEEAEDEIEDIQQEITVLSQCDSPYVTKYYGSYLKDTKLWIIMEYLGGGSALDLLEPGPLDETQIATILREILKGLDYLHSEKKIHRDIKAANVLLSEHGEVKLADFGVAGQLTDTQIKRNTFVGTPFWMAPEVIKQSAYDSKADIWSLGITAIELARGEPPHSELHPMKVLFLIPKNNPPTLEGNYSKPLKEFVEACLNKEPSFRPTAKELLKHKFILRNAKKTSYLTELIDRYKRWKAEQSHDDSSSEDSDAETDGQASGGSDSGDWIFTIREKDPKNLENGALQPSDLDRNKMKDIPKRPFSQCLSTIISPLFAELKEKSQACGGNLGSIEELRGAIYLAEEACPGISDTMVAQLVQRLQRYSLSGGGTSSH

| Structure (SMILES) | Kd [1] | Kd [2] | Kd [3] | Kd [4] | Kd [5] | Kd [6] | Kd [7] |
| --- | --- | --- | --- | --- | --- | --- | --- |
| C[C@@H](Oc1cc(C(=O)Nc2ccc(C(=O)N3CCN(C)CC3)cc2)nnc1N)c1c(Cl)ccc(F)c1Cl | > 30 µM (inactive) | > 30 µM (inactive) | > 30 µM (inactive) | > 30 µM (inactive) |  |  |  |
| CC(=O)c1cnc2ccc(-c3cc(Cl)c(O)c(Cl)c3)nc2c1N[C@H]1CC[C@H](CN(C)C)CC1 |  |  |  |  | > 30 µM (inactive) | > 30 µM (inactive) |  |
| C=CC(=O)N1CCC[C@H](n2c(=O)n(-c3ccc(Oc4ccccc4)cc3)c3c(N)ncnc32)C1 |  | > 30 µM (inactive) | > 30 µM (inactive) | > 30 µM (inactive) | > 30 µM (inactive) | > 30 µM (inactive) |  |
| COCc1c(-c2ccc(NC(=O)Nc3cc(C(F)(F)F)ccc3F)c(F)c2)c2c(N)ncnn2c1CN1CCOCC1 | > 30 µM (inactive) |  |  | > 30 µM (inactive) |  | > 30 µM (inactive) |  |
| COc1cc(Nc2ncc3c(n2)-c2ccc(Cl)cc2C(c2c(F)cccc2OC)=NC3)ccc1C(=O)O [ALISERTIB] |  | > 30 µM (inactive) |  | > 30 µM (inactive) | > 30 µM (inactive) | > 30 µM (inactive) | > 30 µM (inactive) |
| Cc1nc(NC(=O)N2CCC[C@H]2C(N)=O)sc1-c1ccnc(C(C)(C)C(F)(F)F)c1 [ALPELISIB] |  |  |  |  | > 30 µM (inactive) | > 30 µM (inactive) |  |
| O=C(Nc1c[nH]nc1-c1nc2cc(CN3CCOCC3)ccc2[nH]1)NC1CC1 [AT-9283] | 0.511 µM | 0.213 µM (active) | > 30 µM (inactive) |  | > 30 µM (inactive) | > 30 µM (inactive) | > 30 µM (inactive) |
| COc1cc([C@@H]2c3cc4c(cc3[C@H](O)[C@H]3COC(=O)[C@@H]23)OCO4)cc(OC)c1OC [AXL-1717] | > 30 µM (inactive) |  | > 30 µM (inactive) | > 30 µM (inactive) | > 30 µM (inactive) | > 30 µM (inactive) | > 30 µM (inactive) |
| NC(=O)Nc1cc(-c2cccc(F)c2)sc1C(=O)N[C@H]1CCCNC1 [AZD-7762] |  |  | > 30 µM (inactive) |  | > 30 µM (inactive) | > 30 µM (inactive) | > 30 µM (inactive) |
| Cn1cnc2c(F)c(Nc3ccc(Br)cc3F)c(C(=O)NOCCO)cc21 [BINIMETINIB] | > 30 µM (inactive) |  | > 30 µM (inactive) | > 30 µM (inactive) | > 30 µM (inactive) | > 30 µM (inactive) |  |
| COc1c(OCCCN2CCOCC2)ccc2c1N=C(NC(=O)c1cnc(N)nc1)N1CCN=C21 [COPANLISIB] |  | > 30 µM (inactive) |  | > 30 µM (inactive) |  | > 30 µM (inactive) |  |
| Cn1cc(C2=C(c3cn(C4CCN(Cc5ccccn5)CC4)c4ccccc34)C(=O)NC2=O)c2ccccc21 [ENZASTAURIN] | > 30 µM (inactive) |  |  |  |  |  |  |
| Cc1nc2cc(-n3ncc(C(=O)c4cc5ccccc5[nH]4)c3N)ccc2[nH]1 [FGFR INHIBITOR DEBIO 1347] | > 30 µM (inactive) |  | > 30 µM (inactive) | > 30 µM (inactive) | > 30 µM (inactive) | > 30 µM (inactive) |  |
| O=C(Nc1nc2cccc(-c3ccc(CN4CCS(=O)(=O)CC4)cc3)n2n1)C1CC1 [FILGOTINIB] |  | > 30 µM (inactive) | > 30 µM (inactive) | > 30 µM (inactive) | > 30 µM (inactive) | > 30 µM (inactive) |  |
| Cc1cccc(-c2nn3c(c2-c2ccnc4ccc(C(N)=O)cc24)CCC3)n1 [GALUNISERTIB] |  | > 30 µM (inactive) | > 30 µM (inactive) | > 30 µM (inactive) |  | > 30 µM (inactive) | > 30 µM (inactive) |
| O=C(Nc1cc(C(F)(F)F)cc(C(F)(F)F)c1)c1cc(Cl)ccc1O [IMD-0354] | > 30 µM (inactive) | > 30 µM (inactive) |  | > 30 µM (inactive) |  |  | > 30 µM (inactive) |
| CNC(=O)c1cccc2cc(Oc3ccnc4cc(OCC5(N)CC5)c(OC)cc34)ccc12 [LUCITANIB] | > 30 µM (inactive) |  | > 30 µM (inactive) | > 30 µM (inactive) | > 30 µM (inactive) | > 30 µM (inactive) | > 30 µM (inactive) |
| NC1(c2ccc(-c3nc4ccn5c(=O)[nH]nc5c4cc3-c3ccccc3)cc2)CCC1 [MK-2206] | > 30 µM (inactive) | > 30 µM (inactive) |  | > 30 µM (inactive) | > 30 µM (inactive) |  |  |
| CN(C[C@@H]1COCCO1)S(=O)(=O)Nc1ccc2ccc3ncc(-c4cnn(C)c4)cc3c(=O)c2c1 [MK-2461] | > 30 µM (inactive) |  | > 30 µM (inactive) | > 30 µM (inactive) | > 30 µM (inactive) | > 30 µM (inactive) |  |
| Cn1cc(-c2cnc3ccc4ccc(CS(=O)(=O)NCc5ccccn5)cc4c(=O)c3c2)cn1 [MK-8033] | > 30 µM (inactive) | > 30 µM (inactive) | > 30 µM (inactive) |  | > 30 µM (inactive) | > 30 µM (inactive) |  |
| FC(F)(F)c1ccc(/C=C/c2nc(COc3ccc(CCCCn4ccnn4)cc3)co2)cc1 [MUBRITINIB] |  |  | > 30 µM (inactive) | > 30 µM (inactive) |  |  | > 30 µM (inactive) |
| Cc1[nH]c(/C=C2\C(=O)Nc3ccccc32)c(C)c1CCC(=O)O [ORANTINIB] |  | > 30 µM (inactive) |  |  |  | > 30 µM (inactive) | > 30 µM (inactive) |
| CCCCCCCCCCCCCCCCCCOP(=O)([O-])OC1CC[N+](C)(C)CC1 [PERIFOSINE] |  |  | > 30 µM (inactive) |  | > 30 µM (inactive) | > 30 µM (inactive) |  |
| N#CC[C@H](C1CCCC1)n1cc(-c2ncnc3[nH]ccc23)cn1 [RUXOLITINIB] | > 30 µM (inactive) |  |  |  |  | > 30 µM (inactive) |  |
| COc1cc2c(Nc3ccc(Cl)c(Cl)c3F)ncnc2cc1OC[C@@H]1C[C@@H]2CN(C)C[C@@H]2C1 [TESEVATINIB] |  | > 30 µM (inactive) |  | > 30 µM (inactive) |  |  | > 30 µM (inactive) |
| Cn1ncc(Cl)c1-c1cc(C(=O)N[C@H](CN)Cc2ccc(F)c(F)c2)oc1Cl [UPROSERTIB] |  | > 30 µM (inactive) | > 30 µM (inactive) | > 30 µM (inactive) | > 30 µM (inactive) | > 30 µM (inactive) | > 30 µM (inactive) |
| C[C@@H](N)c1ccc(C(=O)Nc2ccnc3[nH]ccc23)cc1 [Y-39983] | > 30 µM (inactive) | > 30 µM (inactive) |  | > 30 µM (inactive) |  |  |  |

Continued, values first:

| Kd [1] | Kd [2] | Kd [3] | Kd [4] | Kd [5] | Kd [6] | Kd [7] | Structure (SMILES) |
| --- | --- | --- | --- | --- | --- | --- | --- |
|  | > 30 µM (inactive) | > 30 µM (inactive) |  |  |  |  | Nc1ncnc2c1c(-c1cccc(OCc3ccccc3)c1)cn2[C@H]1C[C@@H](CN2CCC2)C1 [AEW-541] |
|  |  | > 30 µM (inactive) | > 30 µM (inactive) | > 30 µM (inactive) | > 30 µM (inactive) | > 30 µM (inactive) | Cc1csc(-c2nnc(Nc3ccc(Oc4ncccc4-c4ccnc(N)n4)cc3)c3ccccc23)c1 [AMG-900] |
|  |  |  |  | > 30 µM (inactive) |  | > 30 µM (inactive) | Cc1cc(C(=O)NOCCO)c(Nc2ccc(I)cc2F)n(C)c1=O [AZD-8330] |
| > 30 µM (inactive) | > 30 µM (inactive) |  | > 30 µM (inactive) | > 30 µM (inactive) | > 30 µM (inactive) | > 30 µM (inactive) | CCn1c(C(=O)N(C2CC2)C2CC2)cc2c3c(ncn3C)c(Nc3cc(C)n(C)n3)nc21 [BMS-911543] |
|  | > 30 µM (inactive) | > 30 µM (inactive) |  |  |  | > 30 µM (inactive) | CCn1cc(-c2ccnc3[nH]c(-c4cccc(CN(C)C)c4)cc23)c(-c2ccc(NC(=O)N(C)C)cc2)n1 [GSK-1070916] |
|  | > 30 µM (inactive) |  |  |  | > 30 µM (inactive) | > 30 µM (inactive) | NC(=O)c1c(OCc2c(F)cc(Br)cc2F)nsc1NC(=O)NCCCCN1CCCC1 [OSI-632] |
|  |  |  | 0.019 µM |  |  | > 30 µM (inactive) | CC(=O)NCC(=O)N1[C@@H]2CC[C@H]1c1ccc(Nc3ncc(C(F)(F)F)c(NC4CCC4)n3)cc12 [PF-03814735] |
|  | > 30 µM (inactive) | > 30 µM (inactive) | > 30 µM (inactive) |  |  | > 30 µM (inactive) | CC(C)c1cc(CNc2nc(Nc3cc(C4CC4)[nH]n3)cc(N3CCN(C)CC3)n2)on1 [XL-228] |
